Experimental data as given in patent US8053574B2, “Organic compounds” (Novartis AG, priority 2007, dated 2011).

Each compound was assayed against PI3K γ (Homo sapiens, UniProt P48736) (assay: PI3 kinase phosphorylation assay (Biological Method 1), Ki γ). Conditions: Table 1, compounds of formula X.
Type: biochemical
Experimental: The compounds of the invention were synthesized according to the examples provided above. PI3K inhibitory (IC50) values of the compounds were determined according to Biological Method 1.
Assay 1: Homogenous Solution Phase Assay
Compounds to be tested are dissolved in DMSO and directly distributed into 384-well flashplates at 1.25 μL per well. To start the reaction, 20 μL of 6 nM PI3 kinase are added into each well followed by 20 μL of 400 nM ATP containing a trace of radiolabeled ATP and 900 nM 1-alpha-phosphatidylinositol (PI). The plates are briefly centrifuged to remove any air gap. The reaction is performed for 15 minutes and then stopped by the addition of 20 μL of 100 mM EDTA. The stopped reaction is incubated overnight at RT to allow the lipid substrate to bind by hydrophobic interaction to the surface of the flashplate. The liquid in the wells is then washed away, and the labeled substrate is detected with scintillation counting.
Assay 2: One Step Solid Phase Assay
This method is similar to Assay 1 except that the lipid substrate (1-alpha-phosphatidylinositol (PI)) is first dissolved in a coating buffer and incubated on flashplate at room temperature overnight to allow the lipid substrate to bind by hydrophobic interaction to the surface of the flashplate. Unbound substrate is then washed away. On the day of assay, 20 μL of 6 nM PI3 kinase are added into each well followed by 20 μL of 400 nM ATP containing trace of radiolabeled ATP. Compounds are added together with enzyme and ATP to the lipid-coated plates. The plates are briefly centrifuged to remove any air gap. The reaction is performed for two to three hours. The reaction is stopped by addition of 20 μL of 100 mM EDTA or by immediate plate washing. Phosphorylated lipid substrate is detected by scintillation counting.
Assay 3: ATP Depletion Assay
Compounds to be tested are dissolved in DMSO and directly distributed into a black 384-well plate at 1.25 μL per well. To start the reaction, 25 μL of 10 nM PI3 kinase and 5 μg/mL 1-alpha-phosphatidylinositol (PI) are added into each well followed by 25 μL of 2 μM ATP. The reaction is performed until approx 50% of the ATP is depleted, and then stopped by the addition of 25 μL of KinaseGlo solution. The stopped reaction is incubated for 5 minutes and the remaining ATP is then detected via luminescence.

Chain of PI3K γ (P48736 whole entry): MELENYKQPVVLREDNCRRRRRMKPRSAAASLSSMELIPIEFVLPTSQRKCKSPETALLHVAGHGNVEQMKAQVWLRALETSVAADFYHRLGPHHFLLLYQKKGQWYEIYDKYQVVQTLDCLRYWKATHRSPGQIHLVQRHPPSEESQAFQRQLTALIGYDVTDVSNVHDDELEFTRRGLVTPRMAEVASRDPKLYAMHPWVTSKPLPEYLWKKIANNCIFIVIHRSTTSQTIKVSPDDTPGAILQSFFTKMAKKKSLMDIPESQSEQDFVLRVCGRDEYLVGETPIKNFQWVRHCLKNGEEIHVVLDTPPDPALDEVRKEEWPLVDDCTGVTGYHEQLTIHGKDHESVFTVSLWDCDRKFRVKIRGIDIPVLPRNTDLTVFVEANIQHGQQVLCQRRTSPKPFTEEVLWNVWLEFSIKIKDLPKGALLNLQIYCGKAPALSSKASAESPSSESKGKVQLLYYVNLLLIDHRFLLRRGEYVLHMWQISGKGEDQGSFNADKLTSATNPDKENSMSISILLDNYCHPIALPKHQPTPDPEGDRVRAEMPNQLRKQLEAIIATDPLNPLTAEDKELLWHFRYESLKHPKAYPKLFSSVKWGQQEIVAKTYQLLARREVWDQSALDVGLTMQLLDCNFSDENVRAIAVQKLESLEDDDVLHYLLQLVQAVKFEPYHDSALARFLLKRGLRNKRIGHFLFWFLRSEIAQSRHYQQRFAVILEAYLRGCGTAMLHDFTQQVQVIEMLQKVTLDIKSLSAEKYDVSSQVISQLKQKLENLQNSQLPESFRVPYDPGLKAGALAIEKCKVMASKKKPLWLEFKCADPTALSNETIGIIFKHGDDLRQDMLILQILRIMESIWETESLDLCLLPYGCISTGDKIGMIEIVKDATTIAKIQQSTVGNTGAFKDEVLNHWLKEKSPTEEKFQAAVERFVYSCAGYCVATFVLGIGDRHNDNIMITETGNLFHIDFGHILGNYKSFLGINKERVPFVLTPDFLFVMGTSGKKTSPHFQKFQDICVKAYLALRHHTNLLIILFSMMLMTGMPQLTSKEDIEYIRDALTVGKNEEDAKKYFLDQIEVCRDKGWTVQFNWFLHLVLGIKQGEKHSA

| Ki [µM] | SMILES |
| --- | --- |
| 0.026 | CCc1nnn(CCNC(=O)Nc2cn3cc(-c4cncc(C(F)(F)F)c4)ccc3n2)n1 [drawing 63] |
| 0.028 | CCn1cnc(CCNC(=O)Nc2cn3cc(-c4cncc(C(F)(F)F)c4)ccc3n2)c1 [drawing 59] |
| 0.05 | CC(C)n1nnc(CCNC(=O)Nc2cn3cc(-c4cncc(Cl)c4)ccc3n2)n1 [drawing 37] |
| 0.002 | O=C(NCCc1nnn(CCF)n1)Nc1cn2cc(-c3cncc(C(F)(F)F)c3)ccc2n1 [drawing 83] |
| 0.012 | Cn1nnc(CCNC(=O)Nc2cn3cc(-c4cncc(C(F)(F)F)c4)ccc3n2)n1 [drawing 89] |
| 0.204 | CCn1nnc(CCNC(=O)Nc2cn3cc(-c4cc(Cl)cc(OC)c4)ccc3n2)n1 |
| 0.008 | CC(=O)c1cncc(-c2ccc3nc(NC(=O)NCCc4nnn(C(C)C)n4)cn3c2)c1 [drawing 99] |

Same assay, conditions: Table 2, compounds of formula X

| Ki [µM] | SMILES |
| --- | --- |
| 0.397 | CC(C)(C)NC(=O)CCNC(=O)Nc1cn2cc(-c3cncc(OC4CCOCC4)c3)ccc2n1 [Example 1-18, N-tert-Butyl-3-(3-{6-[5-(tetrahydro-pyran-4-yloxy)-pyridin-3-yl]-imidazo[1,2-a]pyridin-2-yl}-ureido)-propionamide] |
| 0.014 | CCn1nnc(CNC(=O)Nc2cn3cc(-c4cncc(C(F)(F)F)c4)ccc3n2)n1 [Example 1-21, 1-(2-Ethyl-2H-tetrazol-5-ylmethyl)-3-[6-(5-trifluoromethyl-pyridin-3-yl)-imidazo[1,2-a]pyridin-2-yl]urea] |
| 0.456 | CCn1nnc(CCNC(=O)Nc2cn3cc(-c4cnn(C)c4)ccc3n2)n1 [Example 1-40, 1-[2-(2-Ethyl-2H-tetrazol-5-yl)-ethyl]-3-[6-(1-methyl-1H-pyrazol-4-yl)-imidazo[1,2-a]pyridin-2-yl]urea] |

| SMILES | Ki [µM] |
| --- | --- |
| Cc1cc(NC(=O)CCNC(=O)Nc2cn3cc(Br)ccc3n2)no1 [Example 1-46, 3-[3-(6-Bromo-imidazo[1,2-a]pyridin-2-yl)-ureido]-N-(5-methyl-isoxazo-3-yl)-propionamide] | 4.98 |

Same assay, conditions: Table 3, compounds of formula XI

| Ki [µM] | SMILES |
| --- | --- |
| 0.149 | COc1ccc(-c2ccc3nc(NC(=O)NCc4cccnc4)sc3c2)cn1 [Example 2-5, 1-[6-(6-Methoxy-pyridin-3-yl)-benzothiazol-2-yl]-3-pyridin-3-ylmethyl-urea] |

Same assay, conditions: Table 4

| Ki [µM] | SMILES |
| --- | --- |
| 0.099 | CCn1nnc(CCNC(=O)Nc2nc3ccc(-c4cccnc4)cn3n2)n1 [Example 3-8, 1-[2-(2-Ethyl-2H-tetrazol-5-yl)-ethyl]-3-(6-pyridin-3-yl-[1,2,4]triazolo[1,5-a]pyridin-2-yl)-urea] |
| 0.64 | CCn1nnc(CCNC(=O)Nc2nc3cc(-c4cncc(C(F)(F)F)c4)ccn3n2)n1 [Example 3-16, 1-[2-(2-Ethyl-2H-tetrazol-5-yl)-ethyl]-3-[7-(5-trifluoromethyl-pyridin-3-yl)-[1,2,4]triazolo[1,5-a]pyridin-2-yl]-urea] |
| 0.884 | CCn1nnc(CCNC(=O)Nc2cn3cc(-c4cncc(C(F)(F)F)c4)cnc3n2)n1 [Example 3-10, 1-[2-(2-Ethyl-2H-tetrazol-5-yl)-ethyl]-3-[6-(5-trifluoromethyl-pyridin-3-yl)-imidazo[1,2-a]pyrimnidin-2-yl]-urea] |
| 0.502 | CCn1nnc(CCNC(=O)Nc2nc3cc(-c4cccnc4)ccn3n2)n1 [Example 3-15, 1-[2-(2-Ethyl-2H-tetrazol-5-yl)-ethyl]-3-(7-pyridin-3-yl-[1,2,4]triazolo[1,5-a]pyridin-2-yl)-urea] |
| 0.376 | CCn1nnc(CCNC(=O)Nc2nc3ccc(-c4cncc(C(F)(F)F)c4)cn3n2)n1 [Example 3-7, 1-[2-(2-Ethyl-2H-tetrazol-5-yl)-ethyl]-3-[6-(5-trifluoromethyl-pyridin-3-yl)-[1,2,4]triazolo[1,5-a]pyridin-2-yl]-urea] |
| 0.031 | CCn1nnc(CCNC(=O)Nc2cn3nc(-c4cncc(C#N)c4)ccc3n2)n1 [Example 3-2, 1-[6-(5-Cyano-pyridin-3-yl)-imidazo[1,2-b]pyridazin-2-yl]-3-[2-(2-ethyl-2H-tetrazol-5-yl)-ethyl]-urea] |
